The subject of assay [1] is human breast cancer cells (MDA-MB-453). Nature of the assay: scratch assay, migration of MDA-MB-453 cells. In kind it is cell-based. As to conditions: MDA-MB-453, 10 μM, 48 hours; control group 32.42 ± 2.04. The method, then:
(§1) In the scratch assay, the cell migration rate was negatively correlated with the inhibitory effect of the drug component on tumor cell migration ability. The cell migration inhibition experiment was described as follows: tumor cells were cultured in vitro, cells in logarithmic growth phase were collected and seeded evenly in a 24-well plate at a density of 1-2×10^5 cells/well; the cells were cultured in a cell incubator until a monolayer was formed; a scratch tool was used to make a “-” (straight) scratch on the monolayer of cells; the cells were washed 1-3 times with PBS, and a medium (with 2% fetal bovine serum) containing specific test components was added to the culture. Experimental grouping: PBS control group; polypeptide or derivative thereof treatment group (N1-N54), 10 μM. Three independent parallel wells were set up in each group, and the cells were cultured continuously in a cell incubator for 48 hours. […] At least 3 representative images for each well were taken. ImageJ software was used to count the migration distance of the cells, and the cell migration rate was calculated as: cell migration rate (%)=(width of original scratch−width of current scratch)/width of original scratch×100.
This example was a scratch assay to evaluate the inhibitory effect of the polypeptide or derivative thereof (N1-N54) on the migration ability of human breast cancer cells (MDA-MB-453). The experimental method was as described in Example 2.

For assay [2], the system named is human liver cancer cells (HepG2). Nature of the assay: scratch assay, migration of HepG2 cells. As to conditions: HepG2, 10 μM, 48 hours; control group 71.01 ± 6.63. Type of assay: cell-based. As for the experimental part: as §1
This example was a scratch assay to evaluate the inhibitory effect of the polypeptide or derivative thereof (N1-N54) on the migration ability of human liver cancer cells (HepG2). The experimental method was as described in Example 2.

Assay [3] relates to human oral epidermoid carcinoma KB cells. Put plainly: scratch assay, migration of KB cells. In kind it is cell-based. Conditions: 10 μM, 48 hours, control group 54.03 ± 4.21. The method, then:
as §1
This example was a scratch assay to evaluate the inhibitory effect of the polypeptide or derivative thereof (N1-N54) on the migration ability of human oral epidermoid carcinoma cells (KB). The experimental method was as described in Example 2.

Assay [4] deals with human breast cancer cells (MCF-7). Nature of the assay: scratch assay, migration of MCF-7 cells. In kind it is cell-based. Conditions: MCF-7, 10 μM, 48 hours; control group 30.97 ± 1.79. As for the experimental part: as §1
This example was a scratch assay to evaluate the inhibitory effect of the polypeptide or derivative thereof (N1-N54) on the migration ability of human breast cancer cells (MCF-7). The experimental method was as described in Example 2.

Assay [5] concerns human melanoma cells (A375). Nature of the assay: scratch assay, migration of A375 cells. Type of assay: cell-based. As to conditions: A375, 10 μM, 48 hours; control group 44.03 ± 6.21. The method, then:
as §1
This example was a scratch assay to evaluate the inhibitory effect of the polypeptide or derivative thereof (N1-N54) on the migration ability of human melanoma cells (A375). The experimental method was as described in Example 2.

The subject of assay [6] is human pancreatic cancer cells (PANC-1). Nature of the assay: transwell invasion assay, PANC-1 cells. Conditions: PANC-1 transwell invasion, 10 μM, 24 hours; control group 727 ± 68. Type of assay: cell-based. The text has this:
(§2) The Transwell chamber system was used in the transwell cell invasion experiment. The chamber has an upper layer and a lower layer, which are separated by an artificial semipermeable membrane in the middle. The upper surface of the semipermeable membrane is coated with a layer of artificial matrigel to simulate extracellular matrix. Cells that have invaded through the matrigel and semi-permeable membrane will attach to the lower surface of the semi-permeable membrane. The invasion ability is evaluated by counting the number of cells on the lower surface of the semi-permeable membrane. The number of cells that have invaded is negatively correlated with the inhibitory effect of the drug on the invasion ability of the tumor cells. Transwell invasion assay was performed as follows: tumor cells were cultured in vitro, cells in logarithmic growth phase were collected, and cell suspension was prepared with fresh serum-free medium at a density of 2-3×10^5 cells/mL. Cells were inoculated, 100 μL/well cell suspension (serum-free medium) in the upper chamber and 600 μL/well complete culture medium in the lower chamber. After incubated in 37° C., 5% CO2 incubator for 4-5 hours, serum-free medium (100 μL/well) was added to the control group, and serum-free medium containing polypeptide or derivative thereof (N1-N54) was added to the upper chamber of the treatment group (100 μL/well), the final concentration of the peptide or derivative thereof in the upper chamber was 10 μM. The cells were incubated continuously for 24 hours, and then fixed with methanol and stained with crystal violet. Images were taken under a microscope and the number of invaded cells was counted with ImageJ.
This example was the transwell cell invasion experiment to evaluate the inhibitory effect of the polypeptide or derivative thereof (N1-N54) on the invasion ability of human pancreatic cancer cells (PANC-1). The experimental method was as described in Example 4.

In assay [7] the test system is human lung cancer cells (A549) subcutaneous xenograft. Put plainly: lung cancer subcutaneous xenograft animal model, intravenous injection. Type of assay: in vivo, mice (BALB/c-nu/nu). As to conditions: intravenous 60 mg/kg once every other day, 20 days; for Weight of tumor (g) (mean ± SD): control 2.53 ± 0.17; for Volume of tumor (mm^3) (mean ± SD): control 3373.26 ± 581.44. As for the experimental part: Experimental animals: 4-6 weeks old female immunodeficiency mice (BALB/c-nu/nu, Beijing Vital River Laboratory Animal Technology Co., Ltd.).
Subcutaneous xenograft animal model. The number of cells inoculated subcutaneously vin mice was about 2×10^6/200 μL. When the volume of the subcutaneous tumor was greater than 100 mm^3, the mice were randomly divided into groups and subjected to treatment. When the mass volume of the tumors in model control group reached 2000 mm^3 or the animal dies, the treatment ended. The animals were dissected, the tumors were taken out, and the weight and volume of the tumors were measured. During the period of the entire experiment, the mice were observed and the body weight was measured every other day.
The method used in the efficacy test on the lung cancer subcutaneous xenograft animal model was as described in Example 5. The lung cancer cells were the human lung cancer cells (A549), and the route of administration was intravenous injection. This example involved a total of 3 experiments to evaluate N1-N15, N16-N30, and N31-N54 respectively. The experimental procedure, route of administration, dosage and frequency of administration, and detection method were all consistent in the three experiments. The experimental groups were model control group and polypeptide or derivative thereof treatment groups (N1-N15, N16-N30, or N31-N54). The drug dosage of the N1-N54 treatment groups was 60 mg/kg, and the treatment time was 20 days.

Assay [8] concerns human liver adenocarcinoma cells (SK-HEP-1). Put plainly: transwell invasion assay, SK-HEP-1 cells. As to conditions: SK-HEP-1 transwell invasion, 10 μM, 24 hours; control group 767 ± 91. Type of assay: cell-based.
Description: as §2
This example was a transwell cell invasion experiment to evaluate the inhibitory effect of the polypeptide or derivative thereof (N1-N54) on the invasion ability of human liver adenocarcinoma cells (SK-HEP-1). The experimental method was as described in Example 4.

In the case of “N15: SEQ ID NO: 1 with substitution N18R and addition of one amino acid to the carboxyl terminal (YRVRFLAKENVTQDAEDRC)”, the “Migration rate (%) (mean ± SD, P)” value in assay [1] was 8.95 ± 2.93,*** %; in assay [2] it was 53.20 ± 5.58,* %; in assay [3] it was 40.62 ± 3.53,* %; in assay [4], 11.57 ± 2.10,** %; in assay [5] it was 10.62 ± 2.53,*** %. The “Number of cells (mean ± SD, P), invaded cells” value (“Number of cells (mean ± SD, P)” for short) in assay [6] was 104 ± 9,****; in assay [8], 418 ± 36,**. Moreover, the “Weight of tumor (g) (mean ± SD)” value in assay [7] was determined as 0.95 ± 0.18 g. Also, the “Volume of tumor (mm^3) (mean ± SD)” value in assay [7] is on record as 1307.48 ± 416.26 mm^3.

“N16: SEQ ID NO: 1 with substitution A7R and addition of one amino acid at the carboxyl terminus (YRVRFLRKENVTQDAEDNC)”: the “Migration rate (%) (mean ± SD, P)” value in assay [1] was 8.11 ± 1.71,*** %; in assay [2], 43.25 ± 5.18,** %; in assay [3] it was 18.28 ± 3.45,** %; in assay [4], 9.81 ± 3.29,** %; in assay [5] it was 11.28 ± 3.14,*** %. Also, the results for the “Number of cells (mean ± SD, P)” value in assay [6] and in assay [8] were 128 ± 25,**** and 398 ± 43,***, respectively. In addition, the “Weight of tumor (g) (mean ± SD)” value in assay [7] turned out to be 1.05 ± 0.26 g. In addition, the “Volume of tumor (mm^3) (mean ± SD)” value in assay [7] came out at 1442.4 ± 293.63 mm^3.

As for “N17: SEQ ID NO: 1 with addition of two amino acids to the carboxyl terminal (YRVRFLAKENVTQDAEDNCT)”, the “Migration rate (%) (mean ± SD, P)” value in assay [1] is 4.51 ± 1.96,*** %; in assay [2] it was 43.42 ± 3.16,** %; in assay [3], 14.35 ± 2.52,** %; in assay [4] it was 11.47 ± 4.24,** %; in assay [5], 14.35 ± 2.52,*** %. Moreover, the results for the “Number of cells (mean ± SD, P)” value in assay [6] and in assay [8] were 95 ± 6,**** and 165 ± 28,****, respectively. Moreover, the “Weight of tumor (g) (mean ± SD)” value in assay [7] is listed as 0.9 ± 0.16 g. In addition, the “Volume of tumor (mm^3) (mean ± SD)” value in assay [7] is listed as 1301.58 ± 329.64 mm^3.

With “N18: SEQ ID NO: 1 with addition of one amino acid at the amino terminal and one at the carboxyl terminal (FYRVRFLAKENVTQDAEDNC)”, the “Migration rate (%) (mean ± SD, P)” value in assay [1] is on record as 9.97 ± 2.44,*** %; in assay [2] it was 48.73 ± 3.52,** %; in assay [3] it was 12.67 ± 2.33,*** %; in assay [4], 10.40 ± 2.72,** %; in assay [5], 12.67 ± 1.33,*** %. Further, the “Number of cells (mean ± SD, P)” value in assay [6] is 118 ± 14,****; in assay [8], 262 ± 21,****. Further, the “Weight of tumor (g) (mean ± SD)” value in assay [7] is recorded as 1.3 ± 0.24 g. In addition, in assay [7], the “Volume of tumor (mm^3) (mean ± SD)” value turned out to be 1161.51 ± 297.07 mm^3.

For the substance “N19: SEQ ID NO: 1 with deletion of positions 1-5 and 15-18 and addition of two amino acids at the carboxyl terminal (LAKENVTQDRC)”, the “Migration rate (%) (mean ± SD, P)” value in assay [1] is recorded as 25.49 ± 2.69,* %; in assay [2] it was 12.10 ± 6.15,*** %; in assay [3], 8.14 ± 2.21,*** %; in assay [4], 11.84 ± 3.95,** %; in assay [5], 12.93 ± 3.34,*** %. In addition, the “Number of cells (mean ± SD, P)” value is on record as 213 ± 20,**** in assay [6] and 348 ± 40,*** in assay [8]. Also, in assay [7], the “Weight of tumor (g) (mean ± SD)” value turned out to be 0.81 ± 0.19 g. In assay [7], the “Volume of tumor (mm^3) (mean ± SD)” value was determined as 1235.44 ± 432.58 mm^3.

In the case of “N20: SEQ ID NO: 1 with addition of one amino acid at the amino terminal and deletion of position 18 (RYRVRFLAKENVTQDAED)”, the “Migration rate (%) (mean ± SD, P)” value in assay [1] is 7.67 ± 1.35,** %; in assay [2], 14.22 ± 6.12,*** %; in assay [3] it was 6.92 ± 3.28,*** %; in assay [4], 13.73 ± 4.97,** %; in assay [5], 14.61 ± 3.12,*** %. In addition, the figures for the “Number of cells (mean ± SD, P)” value in assay [6] and in assay [8] were 273 ± 12,**** and 242 ± 22,****, respectively. Also, in assay [7], the “Weight of tumor (g) (mean ± SD)” value worked out at 0.56 ± 0.18 g. Further, in assay [7], the “Volume of tumor (mm^3) (mean ± SD)” value is given as 1072.16 ± 390.44 mm^3.

Regarding “N21: SEQ ID NO: 1 with deletion of positions 1-5 and 15-18 and addition of one amino acid at the amino terminal (SLAKENVTQD)”, the “Migration rate (%) (mean ± SD, P)” value is reported as 13.59 ± 2.07,** % in assay [1]; 15.00 ± 7.29,*** % in assay [2]; 9.87 ± 2.84,*** % in assay [3]; 10.43 ± 2.18,** % in assay [4]; 8.29 ± 3.50,*** % in assay [5]. Moreover, the “Number of cells (mean ± SD, P)” value in assay [6] is listed as 269 ± 28,****; in assay [8], 356 ± 60,***. In addition, the “Weight of tumor (g) (mean ± SD)” value in assay [7] stood at 0.71 ± 0.22 g. Further, the “Volume of tumor (mm^3) (mean ± SD)” value in assay [7] worked out at 1065.78 ± 432.05 mm^3.
